# Source: patent US11458123B2 (Arvinas, Inc., priority 2016, dated 2022)
# System: tau protein
# Assay: Tau protein in vitro degradation assay (Western blot, Tau-13 antibody)
# Format: cell-based, human
# Details: SK-N-SH cells, 72 hours of incubation; for Activity* (highest amount of degradation observed at any dosage, as tau protein remaining): tested at 1000 nM, 300 nM and 100 nM
# Description: Tau Protein In Vitro Degradation Assay
# To determine effect of PROTACs on tau protein degradation SK-N-SH cells were seeded in a 24-well tissue culture-treated plate for at least 18-hours prior to compound addition. Tau PROTACs were evaluated for tau degradation by lysing the cells in lysis buffer with protease inhibitors following a 72-hour incubation with tau PROTACs at 1000 nM, 300 nM and 100 nM for Table 1 and 300 nM, 100 nM, 33 nM and 11 nM for Table 2. Cell lysates were run on standard SDS-PAGE gels, and tau levels were detected by Western blotting using Tau-13 antibody from Abcam (Cambridge, UK) that binds to all forms of human tau.
# [1] = tested at 300 nM, 100 nM, 33 nM and 11 nM, Western blot, Tau-13 antibody
Compound,"Activity* (highest amount of degradation observed at any dosage, as tau protein remaining)",Degradation activity* (highest amount of degradation observed at any dosage; tau protein remaining) [1],also measured
"Cc1ncsc1-c1ccc(CNC(=O)[C@@H]2C[C@@H](O)CN2C(=O)[C@@H](NC(=O)COCCOCCOCCOCC(=O)N2CCN(c3ccn4c(n3)nc3ccccc34)CC2)C(C)(C)C)cc1 [Compound 24, (2S,4R)-1-((5)-17-(4-(benzo[4,5]imidazo[1,2-a]pyrimidin-2-yl)piperazin-1-yl)-2-(tert-butyl)-4,17-dioxo-6,9,12,15-tetraoxa-3-azaheptadecanoyl)-4-hydroxy-N-(4-(4-methylthiazol-5-yl)benzyl)pyrrolidine-2-carboxamide]",C (>80% tau protein remaining after 72 hours of incubation with the test compound),,
"Cn1c2ccncc2c2ccc(-c3ccc(O[C@H]4C[C@H](OCCCCOCCCCOC5CN(c6ccc7c(c6)C(=O)N(C6CCC(=O)NC6=O)C7=O)C5)C4)nc3)cc21 (stereo partly drawn) [Compound 162, 2-(2,6-dioxopiperidin-3-yl)-5-(3-(4-(4-((1r,3r)-3-((5-(5-methyl-5H-pyrido[4,3-b]indol-7-yl)pyridin-2-yl)oxy)cyclobutoxy)butoxy)butoxy)azetidin-1-yl)isoindoline-1,3-dione]",,A (≤50% tau protein remaining after 72 hours of incubation with the test compound),
"Cn1c2ccncc2c2ccc(-c3ccc(O[C@H]4C[C@H](OCCOCCCOCC5CN(c6ccc7c(c6)C(=O)N(C6CCC(=O)NC6=O)C7=O)C5)C4)nc3)cc21 (stereo partly drawn) [Compound 191, 2-(2,6-dioxopiperidin-3-yl)-5-(3-((3-(2-((1r,3r)-3-((5-(5-methyl-5H-pyrido[4,3-b]indol-7-yl)pyridin-2-yl)oxy)cyclobutoxy)ethoxy)propoxy)methyl)azetidin-1-yl)isoindoline-1,3-dione]",,,Degradation activity (tau protein remaining; highest amount of degradation observed at any dosage) [1]: A (≤50% tau protein remaining after 72 hours of incubation with the test compound)
"Cn1c2ccncc2c2ccc(-c3ccc(O[C@H]4C[C@H](OCCCCCCN5CCN(c6ccc7c(c6)C(=O)N(C6CCC(=O)NC6=O)C7=O)CC5C(F)(F)F)C4)nc3)cc21 (stereo partly drawn) [Compound 96, 2-(2,6-dioxopiperidin-3-yl)-5-(4-(6-((1r,3r)-3-((5-(5-methyl-5H-pyrido[4,3-b]indol-7-yl)pyridin-2-yl)oxy)cyclobutoxy)hexyl)-3-(trifluoromethyl)piperazin-1-yl)isoindoline-1,3-dione]",,B (≤80% and >50% tau protein remaining after 72 hours of incubation with the test compound),
"O=C1CCC(N2C(=O)c3cnc(OCCOCCOCCOCCOCCOc4ccc(-c5ccc6c(c5)[nH]c5ccncc56)cn4)cc3C2=O)C(=O)N1 (stereo not drawn) [Compound 87, 6-((14-((5-(5H-pyrido[4,3-b]indol-7-yl)pyridin-2-yl)oxy)-3,6,9,12-tetraoxatetradecyl)oxy)-2-(2,6-dioxopiperidin-3-yl)-1H-pyrrolo[3,4-c]pyridine-1,3 (2H)-dione]",,C (>80% tau protein remaining after 72 hours of incubation with the test compound),
"O=C1CCC(N2C(=O)c3ccc(N4CCN(CCCO[C@H]5C[C@@H](Oc6ccc(-c7ccc8c(c7)[nH]c7ccncc78)cn6)C5)CC4)cc3C2=O)C(=O)N1 (stereo partly drawn) [Compound 53, 5-(4-(3-((1s,3s)-3-((5-(5H-pyrido[4,3-b]indol-7-yl)pyridin-2-yl)oxy)cyclobutoxy)propyl)piperazin-1-yl)-2-(2,6-dioxopiperidin-3-yl)isoindoline-1,3-dione]",,C (>80% tau protein remaining after 72 hours of incubation with the test compound),
"Cc1ncsc1-c1ccc([C@H](C)NC(=O)[C@@H]2C[C@@H](O)CN2C(=O)[C@@H](NC(=O)COCCOCCOCCOCCOc2ccc3nc(-c4ccc(N(C)C)cc4)ccc3c2)C(C)(C)C)cc1 [Compound 32, (2S,4R)-1-((S)-2-tert-butyl-17-(2-(4-(dimethylamino)phenyl)quinolin-6-yloxy)-4-oxo-6,9,12,15-tetraoxa-3-azaheptadecane)-4-hydroxy-N—((S)-1-(4-(4-methylthiazol-5-yl)phenyl)ethyl)pyrrolidine-2-carboxamide]",C (>80% tau protein remaining after 72 hours of incubation with the test compound),,
"Cc1ncsc1-c1ccc([C@H](C)NC(=O)[C@@H]2C[C@@H](O)CN2C(=O)[C@@H](NC(=O)COCCOCCOCCOCCCOc2ccc3nc(-c4ccc(N(C)C)cc4)ccc3c2)C(C)(C)C)cc1 [Compound 39, (2S,4R)-1-((S)-2-tert-butyl-18-(2-(4-(dimethylamino)phenyl)quinolin-6-yloxy)-4-oxo-6,9,12,15-tetraoxa-3-azaoctadecane)-4-hydroxy-N—((S)-1-(4-(4-methylthiazol-5-yl)phenyl)ethyl)pyrrolidine-2-carboxamide]",C (>80% tau protein remaining after 72 hours of incubation with the test compound),,
"Cc1ncsc1-c1ccc(CNC(=O)[C@@H]2C[C@@H](O)CN2C(=O)[C@@H](NC(=O)COCCCOCCCOc2ccc3nc(-c4ccc(N(C)C)cc4)ccc3c2)C(C)(C)C)cc1 [Compound 35, (2S,4R)-1-((S)-2-(2-(3-(3-(2-(4-(dimethylamino)phenyl)quinolin-6-yloxy)propoxy)propoxy)acetamido)-3,3-dimethylbutanoyl)-4-hydroxy-N-(4-(4-methylthiazol-5-yl)benzyl)pyrrolidine-2-carboxamide]",C (>80% tau protein remaining after 72 hours of incubation with the test compound),,
"Cn1c2ccncc2c2ccc(-c3ccc(O[C@H]4C[C@H](OCCCCCOC(CC5CN(c6ccc7c(c6)C(=O)N(C6CCC(=O)NC6=O)C7=O)C5)C(F)(F)F)C4)nc3)cc21 (stereo partly drawn) [Compound 153, 2-(2,6-dioxopiperidin-3-yl)-5-(3-(3,3,3-trifluoro-2-((5-((1r,3r)-3-((5-(5-methyl-5H-pyrido[4,3-b]indol-7-yl)pyridin-2-yl)oxy)cyclobutoxy)pentyl)oxy)propyl)azetidin-1-yl)isoindoline-1,3-dione]",,B (≤80% and >50% tau protein remaining after 72 hours of incubation with the test compound),
"Cn1c2ccncc2c2ccc(-c3cnc(O[C@H]4C[C@H](Oc5ccc(C#CCOC6CN(c7ccc8c(c7)C(=O)N(C7CCC(=O)NC7=O)C8=O)C6)nc5)C4)c(C(F)(F)F)c3)cc21 (stereo partly drawn) [Compound 118, 2-(2,6-dioxopiperidin-3-yl)-5-(3-((3-(5-((1r,3r)-3-((5-(5-methyl-5H-pyrido[4,3-b]indol-7-yl)-3-(trifluoromethyl)pyridin-2-yl)oxy)cyclobutoxy)pyridin-2-yl)prop-2-yn-1-yl)oxy)azetidin-1-yl)isoindoline-1,3-dione]",,C (>80% tau protein remaining after 72 hours of incubation with the test compound),
"O=C1CCC(N2C(=O)c3ccc(OC4CN(CCCOCCCO[C@H]5C[C@H](Oc6ncc(-c7ccc8c(c7)[nH]c7ccncc78)cc6C(F)(F)F)C5)C4)cc3C2=O)C(=O)N1 (stereo partly drawn) [Compound 101, 5-((1-(3-(3-((1r,3r)-3-((5-(5H-pyrido[4,3-b]indol-7-yl)-3-(trifluoromethyl)pyridin-2-yl)oxy)cyclobutoxy)propoxy)propyl)azetidin-3-yl)oxy)-2-(2,6-dioxopiperidin-3-yl)isoindoline-1,3-dione]",,A (≤50% tau protein remaining after 72 hours of incubation with the test compound),
